The record followed here is patent US6855730B2, “3-methylidenyl-2-indolinone modulators of protein kinase” (Sugen, Inc., priority 1998, dated 2005).

For the assay, the target named is T1, human flk-1 (Homo sapiens, UniProt P35968).
T1 construct: host or cells: Flk-1/NIH cells (NIH fibroblasts)
Kind of assay: Biochemical FLK-1 assay (flk-1 autophosphorylation ELISA). The note with it: read-out: bio FLK1 IC50 (μM) % if inhibition at 100. Here is the method: This assay evaluates flk-1 autophosphorylation activity in vitro using ELISA.
Materials And Reagents • 1. 15 cm tissue culture dishes • 2. Flk-1/NIH cells: NIH fibroblast line over-expressing human flk-1clone 3 (SUGEN, Inc., obtained from MPI, Martinsried, Germany). • 3. Growth medium: DMEM plus heat inactivated 10% FBS and 2 mM Glutamine (Gibco-BRL). • 4. Starvation medium: DMEM plus 0.5% heat-inactivated FBS, 2 mM Glutamine (Gibco-BRL). • 5. […] L4 or E38 monoclonal antibody specific for flk-1, Purified by Protein-A agarose affinity chromatography (SUGEN, Inc.). • 7. PBS (Dulbecco's Phosphate-Buffered Saline) Gibco Cat. No. 450-1300EB). • 8. HNTG (see BIOCHEMICAL FGFR for preparation). • 9. Pierce BCA protein determination kit. • 10. Blocking buffer • 11. TBST (pH 7.0) • 12. Kinase Buffer • 13. Kinase Stop Solution: 200 mM EDTA. • 14. […] AB kit (Vector Laboratories Cat. No. PK 4000). • 16. DMSO • 17. NUNC 96-well V bottom polypropylene plates (Applied Scientific Cat. No. AS-72092). • 18. Turbo-TMB (Pierce). • 19. Turbo-TMB stop solution: 1 M H2SO4. • 20. ATP (Sigma Cat. No. A-7699). • 21. 20% DMSO in TBS (pH 7.0). Procedure
Cell Growth and Lysate Preparation. • 1. Seed cell into growth medium and grow for 2-3 days to 90-100% confluency at 37° C. and 5% CO2.
2. Remove the medium and wash the cells twice with PBS. Lyse with HNTG lysis buffer. Collect all lysates and vortex mix them for 20-30 seconds. • 3. Remove insoluble material by centrifugation (5-10 min at about 10,000 ×g). • 4. Determine the protein concentration using BCA kit. • 5. Partition lysate into 1 mg aliquots, store at −80° C.
Assay Procedure • 1. Coat Corning 96-well ELISA plates with 2 μg/well purified L4 (or E 38) in 100 μl of PBS. Store overnight at […] • 2. Remove unbound proteins from wells by inverting the plate to remove the liquid. Wash one time with dH2O, pat plate on paper towel to remove excess liquid. • 3. Block plates with 150 μl blocking buffer per well. Incubate for 45-60 minutes with shaking at 4° C. • 4. Remove the blocking buffer and wash the ELISA plate three times with dH2O and one time with TBST. Pat plate on paper towel to remove excess liquid. • 5. Dilute lysate in PBS to give final concentration of 50 μg/100 μl. Add 100 μl of diluted lysate to each well. Incubate with shaking at 4° C. overnight. • 6. Remove unbound proteins from wells by inverting the plate. Wash as in step 4. • 7. Add 80 μl of kinase buffer to wells (90 μl to negative control wells). • 8. Dilute test compounds (normally 10-fold) into wells of a polypropylene plate containing 20% DMSO in TBS. • 9. Add 10 μl of the diluted compounds to the ELISA wells containing immobilized flk-1 and shake. Control wells receive no compounds. • 10. From stock 1 mM ATP, prepare 0.3 mM ATP solution in dH2O (alternatively, kinase buffer may be used). • 11. Add 10 μl of 0.3 mM ATP to all wells except the negative controls. Incubate for 60 min. at room temperature with shaking. • 12. After 1 hr stop the kinase reaction by adding 11 μl 200 mM EDTA. Shake for 1-2 min. • 13. Wash the ELISA plate 4 times with dH2O and twice with TBST. • 14. Add 100 μl of 1:5000 biotinylated 4G10:TBST to all wells. Incubate 45 min with shaking at room temperature. • 15. While the above is incubating, add 50 μl of solutions A & B from the ABC kit to 10 ml of TBST. These solutions must be combined approximately 30 min prior to use. • 16. Wash plates as in step 4. • 17. Add 100 μl of the preformed A & B complex to all wells. Incubate 30 min with shaking at room temperature. • 18. Wash plates as in step 4. • 19. Add 100 μl turbo-TMB. Shake at room temperature for 10-15 min. • 20. When the color in the positive control wells reaches an absorbance of about 0.35-0.4, stop the reaction with 100 μl of turbo-TMB stop solution. • 21. Read plates on Dynatech MR7000 ELISA reader, test filter: 450 nM, reference filter: 410 nM.

SMILES strings stand for the structures. Where a name gives a salt, the structure may show the parent alone.

T1 sequence (P35968 20-1356): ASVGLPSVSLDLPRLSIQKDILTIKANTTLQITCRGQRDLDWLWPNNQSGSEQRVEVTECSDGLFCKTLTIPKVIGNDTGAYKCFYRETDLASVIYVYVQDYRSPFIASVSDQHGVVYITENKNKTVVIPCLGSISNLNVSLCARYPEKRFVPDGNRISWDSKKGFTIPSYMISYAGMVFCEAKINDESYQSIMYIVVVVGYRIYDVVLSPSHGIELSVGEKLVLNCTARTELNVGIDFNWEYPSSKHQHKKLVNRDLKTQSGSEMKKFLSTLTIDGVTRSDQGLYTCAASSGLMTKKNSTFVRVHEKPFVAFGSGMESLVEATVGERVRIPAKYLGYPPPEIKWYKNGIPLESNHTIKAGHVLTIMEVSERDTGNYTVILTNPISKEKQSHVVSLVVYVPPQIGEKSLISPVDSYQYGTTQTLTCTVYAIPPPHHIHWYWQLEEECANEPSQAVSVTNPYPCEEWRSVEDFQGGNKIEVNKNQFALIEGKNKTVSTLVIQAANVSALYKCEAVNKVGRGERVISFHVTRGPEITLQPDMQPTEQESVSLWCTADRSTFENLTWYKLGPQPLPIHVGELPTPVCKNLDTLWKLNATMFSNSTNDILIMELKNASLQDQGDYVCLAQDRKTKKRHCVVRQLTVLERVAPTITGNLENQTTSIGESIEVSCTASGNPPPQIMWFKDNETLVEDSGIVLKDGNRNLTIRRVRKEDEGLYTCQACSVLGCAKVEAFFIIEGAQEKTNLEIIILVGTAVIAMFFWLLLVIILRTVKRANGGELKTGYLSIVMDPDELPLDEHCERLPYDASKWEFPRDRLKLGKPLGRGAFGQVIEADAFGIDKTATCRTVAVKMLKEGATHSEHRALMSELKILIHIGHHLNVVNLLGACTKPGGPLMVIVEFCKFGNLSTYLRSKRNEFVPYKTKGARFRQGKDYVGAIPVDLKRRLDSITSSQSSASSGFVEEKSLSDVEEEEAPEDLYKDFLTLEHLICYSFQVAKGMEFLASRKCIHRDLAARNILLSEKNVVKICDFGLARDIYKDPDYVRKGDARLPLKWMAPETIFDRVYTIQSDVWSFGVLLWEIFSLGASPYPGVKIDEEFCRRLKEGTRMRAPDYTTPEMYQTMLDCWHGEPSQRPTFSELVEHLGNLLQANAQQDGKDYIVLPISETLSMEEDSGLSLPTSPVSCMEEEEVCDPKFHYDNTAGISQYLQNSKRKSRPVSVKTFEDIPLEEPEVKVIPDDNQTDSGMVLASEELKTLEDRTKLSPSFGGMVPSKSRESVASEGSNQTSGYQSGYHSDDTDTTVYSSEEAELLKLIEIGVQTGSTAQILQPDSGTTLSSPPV

Consider `Cc1c(/C=C2\C(=O)Nc3ccc(C(=O)O)cc32)[nH]c2ccccc12` [Example 156, 3-(3-Methyl-1H-indol-2-ylmethylene)-2-oxo-2,3-dihydro-1H-indole-5-carboxylic acid (piperidine salt)], for which the concentration for half-maximal inhibition (IC50) is 4.2 µM.
